Data reported in ChEMBL document CHEMBL5390233, “Design, synthesis and biological evaluation of 2-aminopyrimidine derivatives as potent FLT3 inhibitors” (Bioorg Med Chem Lett, 2023).
pIC50: −log10 of the molar value.

Tests used:
BaF3 [1] = assay: Antiproliferative activity against mouse BaF3 cells harboring FLT3-ITD mutant assessed as inhibition of cell growth; format: functional, cell-based
MCF7 = assay: Antiproliferative activity against human MCF7 cells assessed as inhibition of cell growth; format: functional, cell-based
[2] = target: T1, Receptor-type tyrosine-protein kinase FLT3 (Homo sapiens, UniProt P36888); assay: Inhibition of wild type FLT3 (unknown origin)
T1 sequence (P36888 whole entry): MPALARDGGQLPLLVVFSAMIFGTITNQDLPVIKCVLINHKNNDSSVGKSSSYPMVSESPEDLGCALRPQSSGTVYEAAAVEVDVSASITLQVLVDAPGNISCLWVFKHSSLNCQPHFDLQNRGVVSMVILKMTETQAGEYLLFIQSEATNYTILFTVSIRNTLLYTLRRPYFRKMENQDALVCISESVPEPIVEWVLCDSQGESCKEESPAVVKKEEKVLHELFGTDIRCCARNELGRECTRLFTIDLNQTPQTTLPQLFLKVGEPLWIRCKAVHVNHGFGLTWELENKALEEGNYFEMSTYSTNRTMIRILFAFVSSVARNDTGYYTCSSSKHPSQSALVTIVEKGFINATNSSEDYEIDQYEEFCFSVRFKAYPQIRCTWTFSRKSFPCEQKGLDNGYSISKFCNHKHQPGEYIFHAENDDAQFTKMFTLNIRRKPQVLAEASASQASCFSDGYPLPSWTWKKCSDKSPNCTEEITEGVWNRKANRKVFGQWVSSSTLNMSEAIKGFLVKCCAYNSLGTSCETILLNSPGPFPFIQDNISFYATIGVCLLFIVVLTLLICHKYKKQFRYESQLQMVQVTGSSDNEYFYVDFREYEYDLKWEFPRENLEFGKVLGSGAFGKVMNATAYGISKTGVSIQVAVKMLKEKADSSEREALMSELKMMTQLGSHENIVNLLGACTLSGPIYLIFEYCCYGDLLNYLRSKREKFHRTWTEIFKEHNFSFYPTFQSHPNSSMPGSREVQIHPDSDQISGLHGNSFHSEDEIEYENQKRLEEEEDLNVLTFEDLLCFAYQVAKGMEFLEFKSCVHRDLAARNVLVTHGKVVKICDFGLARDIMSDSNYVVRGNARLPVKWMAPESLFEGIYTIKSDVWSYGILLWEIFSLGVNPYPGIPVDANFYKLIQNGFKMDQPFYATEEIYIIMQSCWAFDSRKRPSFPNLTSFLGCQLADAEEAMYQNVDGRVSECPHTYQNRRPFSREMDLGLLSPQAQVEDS

BaF3 [3] = assay: Antiproliferative activity against mouse BaF3 cells harboring FLT3-D835F mutant assessed as inhibition of cell growth; format: functional, cell-based
[4] = Antiproliferative activity against human PBMC cells assessed as inhibition of cell growth; format: toxicity, cell-based
BaF3 [5] = assay: Antiproliferative activity against mouse BaF3 cells harboring FLT3-ITD-D835Y mutant assessed as inhibition of cell growth; format: functional, cell-based
MV4-11 = assay: Antiproliferative activity against human MV4-11 cells assessed as inhibition of cell growth; format: functional, cell-based
MM1.S = assay: Antiproliferative activity against human MM1.S cells assessed as inhibition of cell growth; format: functional, cell-based
BaF3 [6] = assay: Antiproliferative activity against mouse BaF3 cells harboring FLT3-D835V mutant assessed as inhibition of cell growth; format: functional, cell-based
BaF3 [7] = assay: Antiproliferative activity against mouse BaF3 cells harboring FLT3-F691L mutant assessed as inhibition of cell growth; format: functional, cell-based
[8] = target: Receptor-type tyrosine-protein kinase FLT3 (Homo sapiens, UniProt P36888, D835Y); assay: Inhibition of FLT3 D835Y mutant (unknown origin)
HeLa = assay: Antiproliferative activity against human HeLa cells assessed as inhibition of cell growth; format: functional, cell-based
MOLM-13 = assay: Antiproliferative activity against human MOLM-13 cells assessed as inhibition of cell growth; format: functional, cell-based

pIC50 [2] | pIC50 [8] | SMILES | pIC50 (MV4-11; mv4-11) | further results
7.54 | 7.38 | CC1(COc2ccc(Nc3ncc(C(F)(F)F)c(NC4CCNCC4)n3)cc2)COC1 |  | 
6.86 | 6.46 | CC1(COc2ccc(Nc3ncc(C(F)(F)F)c(N4CCC(N)CC4)n3)cc2)COC1 |  | 
6.47 | 6.42 | CC1(COc2ccc(Nc3ncc(C(F)(F)F)c(N4CCOCC4)n3)cc2)COC1 |  | 
7.07 | 6.85 | CC1(COc2ccc(Nc3ncc(C(F)(F)F)c(N4CCC(O)CC4)n3)cc2)COC1 |  | 
6.47 | 6.16 | CN1CCN(c2nc(Nc3ccc(OCC4(C)COC4)cc3)ncc2C(F)(F)F)CC1 |  | 
7.53 | 7.19 | CC1(COc2ccc(Nc3ncc(C(F)(F)F)c(N[C@H]4CC[C@H](O)CC4)n3)cc2)COC1 |  | pIC50 (MV4-11; Homo sapiens, MV4-11): 8.12
7.49 | 7.16 | CC1(COc2cccc(Nc3ncc(C(F)(F)F)c(NC4CCNCC4)n3)c2)COC1 |  | 
6.64 | 6.46 | CC1(COc2ccc(Nc3ncc(C(F)(F)F)c(N4CCNCC4)n3)cc2)COC1 |  | 
8.02 | 8.01 | CC1(COc2ccc(Nc3ncc(C(F)(F)F)c(N[C@H]4CC[C@@H](O)CC4)n3)cc2)COC1 |  | pIC50 (MV4-11; Homo sapiens, MV4-11): 7.37
7.49 | 7.39 | CC1(COc2ccc(Nc3ncc(C(F)(F)F)c(NCC4CCNCC4)n3)cc2)COC1 |  | 
 |  | CCc1nc(C(N)=O)c(Nc2ccc(N3CCC(N4CCN(C)CC4)CC3)c(OC)c2)nc1NC1CCOCC1 [GILTERITINIB] |  | pIC50 (BaF3 [1]; Mus musculus, BaF3): 9.22; pIC50 (MCF7; Homo sapiens, MCF7): 5.89; pIC50 (BaF3 [3]; Mus musculus, BaF3): 9.18; pIC50 [4]: 5.15; pIC50 (BaF3 [5]; Mus musculus, BaF3): 9.32; pIC50 (MV4-11; Homo sapiens, MV4-11): 8.87; pIC50 (MM1.S; Homo sapiens, MM1.S): 6.69; pIC50 (BaF3 [6]; Mus musculus, BaF3): 9.21; pIC50 (BaF3 [7]; Mus musculus, BaF3): 8.98; pIC50 (HeLa; Homo sapiens, HeLa): 5.49

SMILES | pIC50 [2] | pIC50 [8] | pIC50 (MV4-11; mv4-11) | further results
CC1(COc2ccc(Nc3ncc(C(F)(F)F)c(N[C@H]4CC[C@@H](N)CC4)n3)cc2)COC1 | 8.13 | 8.04 | 9.08 | pIC50 (BaF3 [1]; baf3): 9.04; pIC50 (MCF7; mcf7): 5.30; pIC50 (BaF3 [3]; baf3): 9.03; pIC50 [4]: 5.10; pIC50 (BaF3 [5]; baf3): 9.02; pIC50 (MM1.S; mm1.s): 5.65; pIC50 (BaF3 [6]; baf3): 9.01; pIC50 (BaF3 [7]; baf3): 8.38; pIC50 (HeLa; hela): 5.24; pIC50 (MOLM-13): 7.98
CC1(COc2ccc(Nc3ncc(C(F)(F)F)c(N[C@@H]4CCCNC4)n3)cc2)COC1 | 7.85 | 7.59 | 8.01 | 
CC1(COc2cccc(Nc3ncc(C(F)(F)F)c(N[C@@H]4CCCNC4)n3)c2)COC1 | 7.78 | 7.61 | 7.76 | 
CC1(COc2cccc(Nc3ncc(C(F)(F)F)c(NCC4CCNCC4)n3)c2)COC1 | 7.96 | 7.65 | 8.16 | 
CC1(COc2ccc(Nc3ncc(C(F)(F)F)c(N[C@H]4CC[C@H](N)CC4)n3)cc2)COC1 | 7.52 | 7.56 | 7.58 | 
